Assay results: ChEMBL document CHEMBL1127522, “[L-Ala3]DPDPE: a new enkephalin analog with a unique opioid receptor activity profile. Further evidence of delta-opioid receptor multiplicity” (J Med Chem, 1994)
Bridge positions count the residues as written; N and C are the ends. Square brackets hold non-standard residues; d marks the D form. Peptide text beside a SMILES is read from it. dPen = CC(C)(S)[C@@H](N)C(=O)O; dAbu = CC[C@@H](N)C(=O)O

Experiments:
[1] = molecular target: Delta-type opioid receptor (Mus musculus, UniProt P32300); test: Inhibitory activity of the electrically induced smooth muscle contraction of mouse vas deferens; type: functional, tissue-based
[2] = molecular target: Mu-type opioid receptor (Rattus norvegicus, UniProt P33535); test: Evaluation for the binding affinity by competitive inhibition of [3H]- CTOP binding
[3] = molecular target: Delta-type opioid receptor (Rattus norvegicus, UniProt P33533); test: Evaluation for the binding affinity by competitive inhibition of [3H]- p-chloro DPDPE binding
Delta-type opioid receptor (Rattus norvegicus, UniProt P33533), sequence (P33533 whole entry): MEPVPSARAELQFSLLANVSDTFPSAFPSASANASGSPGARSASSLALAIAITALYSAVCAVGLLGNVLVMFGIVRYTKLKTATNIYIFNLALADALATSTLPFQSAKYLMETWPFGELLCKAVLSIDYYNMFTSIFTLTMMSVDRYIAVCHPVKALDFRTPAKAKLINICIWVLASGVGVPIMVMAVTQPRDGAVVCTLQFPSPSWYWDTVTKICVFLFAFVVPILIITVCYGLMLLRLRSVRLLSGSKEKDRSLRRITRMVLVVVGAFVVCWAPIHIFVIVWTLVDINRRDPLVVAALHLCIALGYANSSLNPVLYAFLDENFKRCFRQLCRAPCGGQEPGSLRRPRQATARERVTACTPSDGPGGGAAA

Mu-type opioid receptor, sequence (P33535 whole entry): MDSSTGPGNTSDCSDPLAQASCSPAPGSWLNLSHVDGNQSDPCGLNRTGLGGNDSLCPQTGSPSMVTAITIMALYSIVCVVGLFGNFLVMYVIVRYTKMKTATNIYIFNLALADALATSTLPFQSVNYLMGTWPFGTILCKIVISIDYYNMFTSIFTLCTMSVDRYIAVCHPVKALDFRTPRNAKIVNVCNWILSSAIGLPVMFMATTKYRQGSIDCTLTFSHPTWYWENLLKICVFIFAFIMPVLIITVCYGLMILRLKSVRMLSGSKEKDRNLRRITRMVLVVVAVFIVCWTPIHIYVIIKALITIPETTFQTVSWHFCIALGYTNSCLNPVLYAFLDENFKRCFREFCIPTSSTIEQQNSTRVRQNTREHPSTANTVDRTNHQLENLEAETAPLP
Delta-type opioid receptor (Mus musculus, UniProt P32300), sequence (P32300 whole entry): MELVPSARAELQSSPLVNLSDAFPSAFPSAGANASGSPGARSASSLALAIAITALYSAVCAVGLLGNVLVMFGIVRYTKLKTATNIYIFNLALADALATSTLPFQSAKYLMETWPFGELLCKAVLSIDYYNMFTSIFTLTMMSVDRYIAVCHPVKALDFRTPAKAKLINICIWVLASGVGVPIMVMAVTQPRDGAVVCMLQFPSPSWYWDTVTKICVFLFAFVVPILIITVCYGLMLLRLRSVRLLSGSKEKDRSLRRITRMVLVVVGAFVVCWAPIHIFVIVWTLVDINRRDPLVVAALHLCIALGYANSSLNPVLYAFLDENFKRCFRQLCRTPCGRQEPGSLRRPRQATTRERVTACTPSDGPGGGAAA

| Structure (SMILES) | IC50 [1] | IC50 [2] | IC50 [3] |
| --- | --- | --- | --- |
| CC1(C)SSC(C)(C)[C@@H](NC(=O)[C@@H](N)Cc2ccc(O)cc2)C(=O)N[C@H](CO)C(=O)N[C@@H](Cc2ccccc2)C(=O)N[C@H]1C(=O)O (H-Y[dPen][dS]F[dPen]-OH; disulfide 2-5) | 1300 nM | > 50 µM |  |
| CC[C@H]1NC(=O)[C@H](NC(=O)[C@@H](N)Cc2ccc(O)cc2)C(C)(C)SSC(C)(C)[C@H](C(=O)O)NC(=O)[C@H](Cc2ccccc2)NC1=O (H-Y[dPen][dAbu]F[dPen]-OH; disulfide 2-5) |  | > 50 µM | 2500 nM |
| CC1(C)SSC(C)(C)[C@@H](NC(=O)[C@@H](N)Cc2ccc(O)cc2)C(=O)N[C@@H](CO)C(=O)N[C@@H](Cc2ccccc2)C(=O)N[C@H]1C(=O)O (H-Y[dPen]SF[dPen]-OH; disulfide 2-5) |  | > 22.5 µM |  |
